Assay results from patent publication US6447768B1, “Methods of gene therapy with a DNA sequence encoding NOS” (priority 1998, dated 2002).

Test system: Human foreskin microvascular endothelial cells (MVEC)
Test: Angiogenesis assay: capillary-like tube formation of MVEC in fibrin matrix
Assay type: cell-based
Conditions: for formation of capillary-like structures in fibrin matrices: uninfected MVEC, in combination with TNF-α
Experimental: Human foreskin microvascular endothelial cells (MVEC) were grown to confluency in M199 medium supplemented with 10% human serum (HS), 10% new-born calf serum (NBCS), penicillin and streptomycin and infected with 3.10_ pfu/ml Ad.IG.CMV.eNOS for 1 hour in M199 +2% NBCS. Medium was refreshed and cells were incubated overnight in M199+10% HS+10% NBCS.
Angiogenesis was analysed as described in Koolwijk et al. J. Cell Biol. 132 p1177-1188 (1996). Briefly, highly confluent MVEC were detached, seeded in a 1.25:1 split ratio on human fibrin matrices as cultures consisting either of uninfected cells, 100% infected cells or mixed cultures consisting of 10% infected/90% uninfected cells and cultured in M199 medium supplemented with 10% human serum (HS), 10% new-born calf serum (NBCS), penicillin and streptomycin.
Invading cells and the formation of tubular structures of endothelial cells in the three-dimensional fibrin matrix were analysed by phase contrast microscopy. After 7 days the total length of the tube-like structure of six randomly chosen microscopic fields per well (7.3 mm^2/field=43.8% of the total well) was measured using a Nikon FXA microscope equipped with a monochrome CCD camera (MX5) connected to a computer with Optimas image analysis software, and expressed as total tube length/cm^2.
For the angiogenesis experiments incubations are performed with cultures of uninfected cells, 10% infected MVEC and of 100% infected MVEC.
All incubations have been performed in the presence of 1 ng/ml TNF-α. Specific conditions tested in the presence and absence of virus were control, +bFGF: 5 ng/ml, +VEGF: 25 ng/ml, +bFGF+L-NAME: 5 ng/ml, 100 iM

Compound	effect on tube formation (100 μM, bFGF+TNF-α stimulated cultures, with and without NOS infected cells)	formation of capillary-like structures in fibrin matrices
COC(=O)[C@@H](N)CCCNC(=N)N[N+](=O)[O-] [L-NAME]	small reduction of tube formation	–
VEGF	–	formed capillary-like structures
bFGF: basic Fibroblast Growth Factor	–	formed capillary-like structures
